Measurements taken from the Deep4Chem optical property database.

Test: solvent given as SMILES

SMILES: CN1CCCc2cc3c(C(F)(F)F)cc(=O)oc3cc21
- emission maximum (in C1CCCCC1): 439 nm
- emission maximum (in CC#N): 510 nm
- emission maximum (in CCO): 515 nm

SMILES: F[B-]1(F)OC(c2ccccc2)=C(c2ccccc2)c2sc3ccccc3[n+]21
- emission maximum (in C1CCOC1): 446 nm

SMILES: CCN(C(C)=O)c1cc2c(cc1C)C(c1ccccc1C(=O)O)=C1CCCC(/C=C/C3=[N+](C)c4ccccc4C3(C)C)=C1O2
- emission maximum (in CCO): 687 nm

SMILES: O=c1oc2c(ccc3cc(O)ccc32)nc1-c1ccccc1
- emission maximum (in c1ccccc1): 487 nm

SMILES: COc1ccc2c(c1)CCC1=C(c3ccccc3)C3=C(c4ccc5cccc(O)c5n4)c4c(-c5ccccc5)c5c(n4[B-](F)(F)[N+]3=C12)-c1ccc(OC)cc1CC5
- emission maximum (in O): 680 nm

SMILES: CCCCCCCC1=C(C)C(=O)n2c1cc1[nH]c(C(=O)OC)c(C)c1c2=O
- emission maximum (in C1CCCCC1): 448 nm
- emission maximum (in CO): 500 nm
- emission maximum (in CS(C)=O): 482 nm
- emission maximum (in ClC(Cl)Cl): 448 nm
- emission maximum (in c1ccccc1): 441 nm

SMILES: CCN(CC)c1ccc2c(-c3ccccc3C(=O)[O-])c3ccc(=[N+](CC)CC)cc-3oc2c1
- emission maximum (in CC#N): 579 nm
- emission maximum (in CCO): 571 nm
- emission maximum (in CN(C)C=O): 588 nm
- emission maximum (in O): 580 nm

SMILES: CC(C)[Si](C#Cc1c2ccccc2c(C#C[Si](C(C)C)(C(C)C)C(C)C)c2nc3ccccc3nc12)(C(C)C)C(C)C
- emission maximum (in CCCCCC): 577 nm
- emission maximum (in ClCCl): 609 nm

SMILES: CCN(CC)c1ccc(/C=N/CC/N=C/c2ccc(N(CC)CC)cc2O)c(O)c1
- emission maximum (in CC#N): 415 nm
- emission maximum (in CN(C)C=O): 433 nm
- emission maximum (in ClCCl): 432 nm

SMILES: Clc1ccc(/C=C/c2ccc(-c3nc4c5cccnc5c5ncccc5c4[nH]3)cc2)cc1
- emission maximum (in C1CCOC1): 463 nm
- emission maximum (in CC#N): 471 nm
- emission maximum (in CO): 473 nm
- emission maximum (in ClCCl): 467 nm

SMILES: c1ccc(N(c2ccccc2)c2ccc(-n3ccc4cc(-c5cccc6c5-c5ccccc5C6(c5ccccc5)c5ccccc5)ccc43)cc2)cc1
- emission maximum (in ClCCl): 381 nm

SMILES: O=Cc1ccc(C#CC(C#Cc2ccc(C=O)s2)=Cc2ccc(C=C(C#Cc3ccc(C=O)s3)C#Cc3ccc(C=O)s3)cc2)s1
- emission maximum (in ClC(Cl)Cl): 533 nm

SMILES: COc1cc2c(cc1OC)C1=C[C@H](c3ccc(Cl)cc3)C3(C(C#N)=C(C#N)N1CC2)c1ccccc1-c1ccccc13
- emission maximum (in ClCCl): 405 nm

SMILES: c1ccc(-c2nc(-c3ccc(N4CCCC4)cc3)cc(-c3ccc4ccccc4c3)n2)cc1
- emission maximum (in ClC(Cl)Cl): 498 nm

SMILES: CCCC1(CCC)c2cc(-c3ccc4c(c3)C(CCC)(CCC)c3cc(-c5ccc6c(c5)C(CCC)(CCC)c5cc(C(C)(C)CC)ccc5-6)ccc3-4)ccc2-c2ccc(-c3ccc4c(c3)C(CCC)(CCC)c3cc(C(C)(C)CC)ccc3-4)cc21
- emission maximum (in C1CCCCC1): 407 nm

SMILES: CCN(CC)c1ccc2cc(-c3nc4cc(C(=O)Nc5ccccc5[N+](=O)[O-])ccc4o3)c(=O)oc2c1
- emission maximum (in ClCCl): 498 nm

SMILES: CC(C)[Si](C#Cc1c2ccccc2c(C#Cc2c3ccccc3c(C#Cc3c4ccccc4c(C#Cc4c5ccccc5c(C#Cc5c6ccccc6c(C#C[Si](C(C)C)(C(C)C)C(C)C)c6ccccc56)c5ccccc45)c4ccccc34)c3ccccc23)c2ccccc12)(C(C)C)C(C)C
- emission maximum (in Cc1ccccc1): 623 nm

SMILES: O=Cc1ccc2c(c1)c1ccccc1n2-c1ccc(-c2ccc(-n3c4ccccc4c4cc(C=O)ccc43)cc2)cc1
- emission maximum (in ClCCl): 405 nm

SMILES: CC/[NH+]=c1\cc2oc3cc(NCCC(=O)NC(CCC(=O)OC)C(=O)OC)c4ccccc4c3nc-2cc1C (centres undefined)
- emission maximum (in CCO): 644 nm
- emission maximum (in O): 652 nm

SMILES: Fc1ccc(C2=NC(c3ccccc3)C(N(c3ccccc3)c3ccccc3)S2)cc1 (centres undefined)
- emission maximum (in ClC(Cl)Cl): 461 nm

SMILES: C(=C\c1ncc(-c2ccc(OCc3ccccc3)c(OCc3ccccc3)c2)o1)/c1cccc(N2CCCC2)c1
- emission maximum (in ClCCl): 485 nm

SMILES: c1ccc(-c2c3c(nc4ccccc24)-c2cc4c(cc2CC3)-c2nc3ccccc3c(-c3ccccc3)c2CC4)cc1
- emission maximum (in ClC(Cl)Cl): 387 nm

SMILES: O=C1CC(c2ccccc2)c2c(c3ccccc3c3nc4ccccc4nc23)O1 (centres undefined)
- emission maximum (in ClC(Cl)Cl): 431 nm

SMILES: COc1ccc(N(c2ccc(/C=C(\C)c3ccccc3)cc2)c2ccc(/C=C(\C)c3ccccc3)cc2)cc1
- emission maximum (in Cc1ccccc1): 435 nm

SMILES: CC1=[N+]2C(=Cc3ccc(C)n3[B-]2(F)F)C=C1c1cc2n(c1)[B-](F)(F)[N+]1=CC=CC1=C2c1c(C)cc(C)cc1C
- emission maximum (in C1CCCCC1): 636 nm
- emission maximum (in CCOC(C)=O): 683 nm

SMILES: CCCCCCCCOc1ccc(C2=C3C(C)=CC(C)=[N+]3[B-](F)(F)n3c(C)cc(C)c32)cc1
- emission maximum (in ClCCl): 513 nm

SMILES: CCOC(=O)c1ccc(C2CC(c3cccc4ccccc34)=NN2c2ccc(C)cc2)cc1 (centres undefined)
- emission maximum (in ClCCl): 493 nm

SMILES: CCOC(=O)CCOc1ccc(C(c2c(C)[nH]c3ccccc23)c2c(C)[nH]c3ccccc23)cc1
- emission maximum (in C1CCCCC1): 328 nm
- emission maximum (in CC#N): 348 nm
- emission maximum (in CO): 349 nm
- emission maximum (in O): 350 nm

SMILES: COc1ccc2nc(/N=N/c3ccc(N(C)C)cc3)sc2c1
- emission maximum (in CC#N): 574 nm
- emission maximum (in ClCCl): 572 nm

SMILES: CN(C)c1ccc(-c2nc3nccnc3n2-c2ccc(N(C)C)cc2)cc1
- emission maximum (in CC#N): 472 nm

SMILES: CCOC(=O)c1ccc(C2CC(c3cccc4ccccc34)=NN2c2ccc(OC)cc2)cc1 (centres undefined)
- emission maximum (in ClCCl): 505 nm

SMILES: CCN(CC)c1ccc2c(c1)oc(=O)c1c(C)nc3c(c(-c4ccccc4)nn3C)c12
- emission maximum (in ClCCl): 461 nm

SMILES: Nc1ccccc1/C=C/C(F)(F)F
- emission maximum (in C1CCOC1): 427 nm

SMILES: CC(C)(C)c1cccc2c1oc1nc3oc4cc(-n5c6ccccc6c6ccccc65)ccc4c3cc12
- emission maximum (in ClC(Cl)Cl): 397 nm

SMILES: CC1(C)C(/C=C/C=C/C=C/C=C2/N(CCCCCC(=O)O)c3ccc(S(=O)(=O)[O-])cc3C2(C)C)=[N+](CCCCCC(=O)O)c2ccc(S(=O)(=O)[O-])cc21
- emission maximum (in CO): 773 nm
- emission maximum (in O): 771 nm

SMILES: CCN(CC)c1ccc2c(C#N)c(/C=C(\C#N)c3nc4ccccc4s3)c(=O)oc2c1
- emission maximum (in C1COCCO1): 647 nm
- emission maximum (in CC#N): 679 nm
- emission maximum (in CCO): 692 nm
- emission maximum (in CCOC(C)=O): 664 nm
- emission maximum (in CO): 701 nm
- emission maximum (in Cc1ccccc1): 637 nm
- emission maximum (in ClCCl): 666 nm

SMILES: CC1(C)CC(/C=C/c2ccc(N3CCOCCOCCOCCOCC3)cc2)=CC(=C(C#N)C#N)C1
- emission maximum (in C1CCOC1): 623 nm
- emission maximum (in CC#N): 640 nm
- emission maximum (in CCO): 641 nm
- emission maximum (in CCOC(C)=O): 618 nm
- emission maximum (in ClCCl): 625 nm
- emission maximum (in c1ccccc1): 596 nm

SMILES: c1ccc(-c2cc(-c3ccc4ccc5c(-c6ccnc(-c7ccccn7)c6)ccc6ccc3c4c65)ccn2)nc1
- emission maximum (in C1CCOC1): 408 nm
- emission maximum (in CC#N): 418.01 nm
- emission maximum (in CCC#N): 408 nm
- emission maximum (in CCCC#N): 408 nm
- emission maximum (in CCCCCC): 397.99 nm
- emission maximum (in CCCO): 429 nm
- emission maximum (in CCO): 430 nm
- emission maximum (in CO): 430 nm
- emission maximum (in Cc1ccccc1): 410.17 nm

SMILES: Oc1ccc(-c2ccco2)cc1-c1nc2ccccc2s1
- emission maximum (in CCO): 435 nm
- emission maximum (in ClCCl): 406 nm
- emission maximum (in O): 577 nm

SMILES: FC(F)(F)c1cc2n(n1)[B-]1(c3ccccc3Oc3ccccc31)[n+]1ccc3ccccc3c1-2
- emission maximum (in C1CCCCC1): 473 nm
- emission maximum (in Cc1ccccc1): 517 nm
- emission maximum (in ClCCl): 543 nm

SMILES: O=P1(c2ccccc2)c2cc(N3c4ccccc4Sc4ccccc43)ccc2-c2ccc(N3c4ccccc4Sc4ccccc43)cc21
- emission maximum (in Cc1ccccc1): 557 nm
- emission maximum (in c1ccc2c(c1)c1ccccc1n2-c1ccc(-c2ccc(-n3c4ccccc4c4ccccc43)cc2)cc1): 554 nm

SMILES: Cc1ccc2nc3c(=O)[nH]c(=O)[nH]c3nc2c1C
- emission maximum (in CC#N): 461 nm

SMILES: CCCCCC(CC)C1(C(CC)CCCCC)c2ccccc2-c2ccc(C#Cc3cc(C#Cc4ccc5c(c4)C(C(CC)CCCCC)(C(CC)CCCCC)c4ccccc4-5)c4ccc5c(C#Cc6ccc7c(c6)C(C(CC)CCCCC)(C(CC)CCCCC)c6ccccc6-7)cc(C#Cc6ccc7c(c6)C(C(CC)CCCCC)(C(CC)CCCCC)c6ccccc6-7)c6ccc3c4c65)cc21 (centres undefined)
- emission maximum (in C1CCCCC1): 507 nm
- emission maximum (in C1CCOC1): 513 nm
- emission maximum (in CCOC(C)=O): 509 nm
- emission maximum (in CN(C)C=O): 518 nm
- emission maximum (in Cc1ccccc1): 513 nm
- emission maximum (in ClC(Cl)Cl): 514 nm
- emission maximum (in ClCCl): 514 nm

SMILES: CCc1c(C)c2n(c1C)[B-](F)(F)[N+]1=C(NCc3ccc(OC)cc3)C=CC1=C2C
- emission maximum (in CC#N): 546 nm
- emission maximum (in CCCCCC): 554 nm
- emission maximum (in CCOC(C)=O): 549 nm
- emission maximum (in CO): 548 nm
- emission maximum (in ClCCl): 551 nm

SMILES: O=c1c2ccccc2oc2cc(N3c4ccccc4C4(c5ccccc5Oc5ccccc54)c4ccccc43)ccc12
- emission maximum (in Cc1ccccc1): 472 nm

SMILES: CC1(C)C(/C=C/C2=C(Oc3ccc(CCN=C=S)cc3Br)C(=C/C=C3/N(CCCS(=O)(=O)[O-])c4ccccc4C3(C)C)/CCC2)=[N+](CCCS(=O)(=O)[O-])c2ccccc21
- emission maximum (in CO): 798 nm

SMILES: N#Cc1ccc2cc(C#N)c3ccc4ccccc4c3c2c1
- emission maximum (in ClC(Cl)Cl): 420 nm

SMILES: c1ccc(-c2nc(-c3ccccc3)nc(-c3ccc(-n4c5ccccc5c5cc(-n6c7ccccc7c7ccccc76)ccc54)c4c5ccccc5n(-c5ccccc5)c34)n2)cc1
- emission maximum (in C1CCOC1): 496.59 nm
- emission maximum (in Cc1ccccc1): 429 nm
- emission maximum (in ClCCl): 531.36 nm

SMILES: N#Cc1c(-c2ccccc2)cc(-c2ccccc2)[nH]c1=S
- emission maximum (in C1CCCCC1): 510 nm
- emission maximum (in C1COCCO1): 512 nm
- emission maximum (in CC#N): 495 nm
- emission maximum (in CCCCO): 506 nm
- emission maximum (in CCCO): 493 nm
- emission maximum (in CCO): 465 nm
- emission maximum (in CCOC(C)=O): 502 nm
- emission maximum (in CCOCC): 518 nm
- emission maximum (in CN(C)C=O): 505 nm
- emission maximum (in ClC(Cl)(Cl)Cl): 510 nm

SMILES: N#C/C(=C\c1cc(/C=C(\C#N)c2ccc(C(F)(F)F)cc2)c(-c2ccc(N(c3ccccc3)c3ccccc3)cc2)cc1-c1ccc(N(c2ccccc2)c2ccccc2)cc1)c1ccc(C(F)(F)F)cc1
- emission maximum (in C1CCCCC1): 478 nm
- emission maximum (in C1CCOC1): 587 nm
- emission maximum (in CCCCCC): 473 nm
- emission maximum (in CCOC(C)=O): 581 nm
- emission maximum (in Cc1ccccc1): 515 nm
- emission maximum (in ClC(Cl)Cl): 553 nm
- emission maximum (in ClCCl): 594 nm

SMILES: CC1=C(C#Cc2ccccc2)C2=Cc3c(C#Cc4ccccc4)c(C)c(C)n3[B-](F)(F)[N+]2=C1C
- emission maximum (in CC#N): 579 nm
